Assay results taken from patent US6897049B1, “Proteins producing an altered immunogenic response and methods of making and using the same” (Genencor International, Inc., priority 1998, dated 2005).

How the values were obtained:
HLA DQ2 molecules = assay: In vitro binding assays using EBV-transformed B cell lines; design: species or system human
naïve human CD4+ T-cells = assay: T-cell proliferation assay with differentiated dendritic cells and naïve human CD4+ T-cells (tritium incorporation); type: cell-based; conditions: for T-cell epitope discovered: naïve donors, positive if response at least 3 times baseline
Protocol: Fresh human peripheral blood cells were collected from “naïve” humans, i.e., persons not known to be exposed to or sensitized to Bacillus lentus protease, for determination of antigenic epitopes in protease from Bacillus lentus and human subtilisin. Naïve humans is intended to mean that the individual is not known to have been exposed to or developed a reaction to protease in the past. Peripheral mononuclear blood cells (stored at room temperature, no older than 24 hours) were prepared for use as follows: Approximately 30 mls of a solution of buffy coat preparation from one unit of whole blood was brought to 50 ml with Dulbecco's phosphate buffered solution (DPBS) and split into two tubes. The samples were underlaid with 12.5 ml of room temperature lymphoprep density separation media (Nycomed density 1.077 g/ml). The tubes were centrifuged for thirty minutes at 600 G. The interface of the two phases was collected, pooled and washed in DPBS. The cell density of the resultant solution was measured by hemocytometer. Viability was measured by trypan blue exclusion.
From the resulting solution, a differentiated dendritic cell culture was prepared from the peripheral blood mononuclear cell sample having a density of 10^8 cells per 75 ml culture flask in a solution as follows: • (1) 50 ml of serum free AIM V media (Gibco) was supplemented with a 1:100 dilution beta-mercaptoethanol (Gibco). The flasks were laid flat for two hours at 37° C. in 5% CO2 to allow adherence of monocytes to the flask wall. • (2) Differentiation of the monocyte cells to dendritic cells was as follows: nonadherent cells were removed and the resultant adherent cells (monocytes) combined with 30 ml of AIM V, 800 units/ml of GM-CSF (Endogen) and 500 units/ml of IL-4 (Endogen); the resulting mixture was cultured for 5 days under conditions at 37° C. in 5% CO2. […] Adherent and non-adherent cells were then centrifuged at 600 G for 5 minutes, washed in DPBS and counted. • (4) The prepared dendritic cells were placed into a 96 well round bottom array at 2×10^4/well in 100 microliter total volume of AIM V media.
CD4+ T cells were prepared from frozen aliquots of the peripheral blood cell samples used to prepare the dendritic cells using the human CD4+ Cellect Kit (Biotex) as per the manufacturers instructions with the following modifications: the aliquots were thawed and washed such that approximately […] will be applied per Cellect column; the cells were resuspended in 4 ml DPBS and 1 ml of the Cell reagent from the Cellect Kit, the solution maintained at room temperature for 20 minutes. […] The resultant CD4+ cell solution was centrifuged, resuspended in AIMV media and the density counted. […]

[1] = system: T-cells of an individual known to be hypersensitive to Bacillus lentus protease; assay: T-cell response to peptides in a sample from an individual hypersensitive to Bacillus lentus protease; type: cell-based, human
Text: Peptide E05 represents the region corresponding to 170-173 in protease from Bacillus amyloliquefaciens.
Alanine substitutions were used as substitutions for the purpose of determining the role of any specific residue within the epitope. The legend of FIG. 10 refers to the position of the peptide in which an alanine was substituted, i.e., in peptide E06 (sequence GSISYPARYANAMAV (SEQ ID NO: 210)), G to A=2, S to A=3, I to A=4, S to A=5, Y to A=6, P to A=7, R to A=8, Y to A=9, N to A=10, M to A=11 and V to A=12.

Row | Substance | binding to HLA DQ2 molecules (HLA DQ2 molecules) | T-cell epitope discovered (naïve human CD4+ T-cells) | further results
1 | 70-84: BPN′ peptide of region 70-84, human T cell epitope (GTVAALNNSIGVLGV; UniProt P00782 177-191, looked up, fragment) [Peptide 70-84] | bound |  | 
2 | 109-123: BPN′ peptide of region 109-123, human T cell epitope (NGIEWAIANNMDVIN; UniProt P00782 216-230, looked up, fragment) [Peptide 109-123] | bound |  | 
3 | A01: peptide derived from Humicola insolens cellulase (Carezyme); legend: A02, residues 70-84 (PGGVAYSCADQTPWA) [Peptide A01] |  | T-cell epitopes were discovered | 
4 | A12: peptide derived from Thermomyces lanuginosa lipase (Lipolase); legend: B02, residues 83-100 (GDVTGFLALDNTNKLIVL) [Peptide A12] |  | T-cell epitopes were discovered | 
5 | F06: peptide of Humicola insolens endogluconase, residues 37-51 (SEQ ID NO: 223) (CGWAKKAPVNQPVFS) [Peptide F06] |  | T-cell epitopes were discovered | 
6 | GSISYPARYANAMAV [Peptide E05, Bacillus lentus protease peptide with region corresponding to 170-173 of B. amyloliquefaciens protease] |  |  | immunogenic response (T-cell proliferation) to peptide (naïve human CD4+ T-cells; naïve blood samples from unsensitized individuals, response relative to baseline): marked allergenic response; T-cell response to peptide [1]: highly responsive
